The results in this text go back to patent publication US12390441B2, “Immunomodulating o-het/aryl azalides” (Zoetis Services LLC, priority 2020, dated 2025).

Holding throughout (assay): Whole blood assay, LPS stimulation, MSD cytokine detection
One test has as its system TNF-α. It is filed as cell-based. The settings on record: fresh whole bovine blood. The protocol:
(§1) Compounds of the invention were evaluated against a positive control for their ability to inhibit LPS-induced IL-1p and TNF-α as an overall evaluation of relative potency and modulation of target pathways.
(§2) In the bovine whole blood in vitro screening assay the inhibition of TNFα as induced by stimulation by lipopolysaccharide (LPS) and as measured by half the maximal inhibitory concentration (IC50) is recognized as the primary biomarker of immunomodulation potency upon pretreatment with the compounds of the invention. IL-1β is a mediator of the inflammation response and is involved in a number of cellular activities including proliferation, differentiation and apoptosis. IL-1β is also released upon cellular stress or cytotoxicity or upon TLR stimulation. In the bovine whole blood assay the stimulation of IL-1β release upon increasing concentration of test compound is seen as a potential cellular toxicity signal as induced by the test compound. In order to estimate a therapeutic index from the in vitro assay a differential between the TNFα IC50 (immunomodulation potency) versus the perceived cellular toxicity concentration (IL-1β release or overstimulation) was utilized. […] As the in vitro assay index approaches 1 it is proposed that the balance between immunomodulation and cytotoxicity would be too narrow in order to achieve an efficacious dose in vivo.

For a further test, the system named is IL-1β. The class given is cell-based, bovine. The settings on record: fresh whole bovine blood, LPS stimulation; drug concentration giving overstimulation (OS) of IL-1β. As to the method:
as §1, §2

The subject of the next test is IL-6. The class given is cell-based. The settings on record: fresh whole bovine blood.

Where “and” joins values, the source holds several entries; their conditions need not be identical. Equal entries are not always repeated. Bounds are passed on as bounds.

In the case of `CC[C@H]1OC(=O)[C@H](C)[C@@H](O[C@H]2C[C@@](C)(OC)[C@@H](O)[C@H](C)O2)[C@H](C)[C@@H](O[C@@H]2O[C@H](C)C[C@H](N(C)C)[C@H]2Oc2ccc(F)cc2)[C@](C)(O)C[C@@H](C)CN(C)[C@H](C)[C@@H](O)[C@]1(C)O` [Example A-23], the half-inhibitory concentration (IC50) turned out to be 5 µM in the test on TNF-α and 50 µM with IL-6. Further, the “IL-1ß OS of LPS” value with IL-1β stood at 6 µM.
The corresponding values for `CC[C@H]1OC(=O)[C@H](C)[C@@H](O[C@H]2C[C@@](C)(OC)[C@@H](O)[C@H](C)O2)[C@H](C)[C@@H](O[C@@H]2O[C@H](C)C[C@H](N(C)C)[C@H]2Oc2ccc3ccncc3c2)[C@](C)(O)C[C@@H](C)CN(C)[C@H](C)[C@@H](O)[C@]1(C)O` [Example A-24] are 19 µM, 24 µM and 40 µM.
For the molecule `CC[C@H]1OC(=O)[C@H](C)[C@@H](O[C@H]2C[C@@](C)(OC)[C@@H](O)[C@H](C)O2)[C@H](C)[C@@H](O[C@@H]2O[C@H](C)C[C@H](N(C)C)[C@H]2Oc2ccc(F)c(C#N)c2)[C@](C)(O)C[C@@H](C)CN(C)[C@H](C)[C@@H](O)[C@]1(C)O` [Example A-25], the IC50 in the test on TNF-α stood at 3 µM; in the test on IL-6, 12 µM. Besides, the “IL-1ß OS of LPS” value in the test with IL-1β was determined as 16 µM.
Turning to `CC[C@H]1OC(=O)[C@H](C)[C@@H](O[C@H]2C[C@@](C)(OC)[C@@H](O)[C@H](C)O2)[C@H](C)[C@@H](O[C@@H]2O[C@H](C)C[C@H](N(C)C)[C@H]2Oc2cnc3ccccc3c2)[C@](C)(O)C[C@@H](C)CN(C)[C@H](C)[C@@H](O)[C@]1(C)O` [Example A-28], the results for the IC50 in the test on TNF-α and in the test with IL-6 were 3 µM and 11 µM, respectively. Moreover, the “IL-1ß OS of LPS” value with IL-1β was determined as 16 µM.
For `CC[C@H]1OC(=O)[C@H](C)[C@@H](O[C@H]2C[C@@](C)(OC)[C@@H](O)[C@H](C)O2)[C@H](C)[C@@H](O[C@@H]2O[C@H](C)C[C@H](NC)[C@H]2Oc2cnc(Cl)cc2C)[C@](C)(O)C[C@@H](C)CN(C)[C@H](C)[C@@H](O)[C@]1(C)O` [Example A-29], the values for the IC50 in the test on TNF-α and in the test with IL-6 were 7 µM and 9 µM, respectively. Also, in the test with IL-1β, the “IL-1ß OS of LPS” value amounted to 10 µM.
For `CC[C@H]1OC(=O)[C@H](C)[C@@H](O[C@H]2C[C@@](C)(OC)[C@@H](O)[C@H](C)O2)[C@H](C)[C@@H](O[C@@H]2O[C@H](C)C[C@H](NC)[C@H]2Oc2ccc(OC)c(OC(C)C)c2)[C@](C)(O)C[C@@H](C)CN(C)[C@H](C)[C@@H](O)[C@]1(C)O` [Example A-34], the IC50 is 4 µM in the test with TNF-α and 21 µM in the test on IL-6. Further, the “IL-1ß OS of LPS” value in the test on IL-1β was more than 250 µM.
Turning to `CC[C@H]1OC(=O)[C@H](C)[C@@H](O[C@H]2C[C@@](C)(OC)[C@@H](O)[C@H](C)O2)[C@H](C)[C@@H](O[C@@H]2O[C@H](C)C[C@H](N(C)C)[C@H]2Oc2cc(OC)ccc2OC)[C@](C)(O)C[C@@H](C)CN(C)[C@H](C)[C@@H](O)[C@]1(C)O` [Example A-35], the IC50 was 4 µM in the test with TNF-α and 11 µM in the test on IL-6. The “IL-1ß OS of LPS” value in the test with IL-1β was 40 µM.
As for `CC[C@H]1OC(=O)[C@H](C)[C@@H](O[C@H]2C[C@@](C)(OC)[C@@H](O)[C@H](C)O2)[C@H](C)[C@@H](O[C@@H]2O[C@H](C)C[C@H](NC)[C@H]2Oc2ccccc2C#N)[C@](C)(O)C[C@@H](C)CN(C)[C@H](C)[C@@H](O)[C@]1(C)O` [Example A-36], the IC50 in the test with TNF-α and in the test on IL-6 was 13 µM throughout. In addition, the “IL-1ß OS of LPS” value in the test with IL-1β turned out to be 100 µM.
For the molecule `CC[C@H]1OC(=O)[C@H](C)[C@@H](O[C@H]2C[C@@](C)(OC)[C@@H](O)[C@H](C)O2)[C@H](C)[C@@H](O[C@@H]2O[C@H](C)C[C@H](NC)[C@H]2Oc2cccc(S(=O)(=O)CC)c2)[C@](C)(O)C[C@@H](C)CN(C)[C@H](C)[C@@H](O)[C@]1(C)O` [Example A-41], the IC50 turned out to be 5 µM with TNF-α and 19 µM in the test with IL-6. Also, the “IL-1ß OS of LPS” value in the test on IL-1β worked out at 16 µM.
The matching figures for `CC[C@H]1OC(=O)[C@H](C)[C@@H](O[C@H]2C[C@@](C)(OC)[C@@H](O)[C@H](C)O2)[C@H](C)[C@@H](O[C@@H]2O[C@H](C)C[C@H](N(C)C)[C@H]2Oc2cnc(Cl)cc2C)[C@](C)(O)C[C@@H](C)CN(C)[C@H](C)[C@@H](O)[C@]1(C)O` [Example A-45]: 4 µM, 12 µM and 40 µM.
In the test on TNF-α, `CC[C@H]1OC(=O)[C@H](C)[C@@H](O)[C@H](C)[C@@H](O[C@@H]2O[C@H](C)C[C@H](N(C)C(=O)N(C)c3ccccc3)[C@H]2Oc2ccc(F)c(C(F)(F)F)c2)[C@](C)(O)C[C@@H](C)CN(C)[C@H](C)[C@@H](O)[C@]1(C)O` [Example C-10] displayed an IC50 of 22 µM. For the same molecule, the “IL-1ß OS of LPS” value in the test with IL-1β amounted to 40 µM.
In the case of `CC[C@H]1OC(=O)[C@H](C)[C@@H](O)[C@H](C)[C@@H](O[C@@H]2O[C@H](C)C[C@H](N(C)C(=O)N(C)c3ncccn3)[C@H]2Oc2ccccc2)[C@](C)(O)C[C@@H](C)CN(C)[C@H](C)[C@@H](O)[C@]1(C)O` [Example C-17], the half-maximal inhibitory concentration (IC50) in the test with TNF-α is 38 µM; in the test with IL-6 it was 63 µM. In addition, in the test on IL-1β, the “IL-1ß OS of LPS” value was 44 µM.
Consider `CCCNC[C@]1(O)[C@H](C)O[C@@H](O[C@H]2[C@H](C)[C@@H](O[C@@H]3O[C@H](C)C[C@H](NC)[C@H]3Oc3ccc(OC)c(F)c3)[C@](C)(O)C[C@@H](C)CN[C@H](C)[C@@H](O)[C@](C)(O)[C@@H](CC)OC(=O)[C@@H]2C)C[C@@]1(C)OC` [Example E-10], for which, in the test on TNF-α, the IC50 turned out to be 30 µM. For the same molecule, the “IL-1ß OS of LPS” value in the test with IL-1β was found to be 40 µM.
`CCCNC[C@]1(O)[C@H](C)O[C@@H](O[C@H]2[C@H](C)[C@@H](O[C@@H]3O[C@H](C)C[C@H](NC)[C@H]3Oc3cc(OC)c(OC)c(OC)c3)[C@](C)(O)C[C@@H](C)CN[C@H](C)[C@@H](O)[C@](C)(O)[C@@H](CC)OC(=O)[C@@H]2C)C[C@@]1(C)OC` [Example E-11] yielded a concentration for half-maximal inhibition (IC50) in the test on TNF-α of 70 µM. For the same molecule, the “IL-1ß OS of LPS” value in the test with IL-1β is 250 µM.
`CCCNC[C@]1(O)[C@H](C)O[C@@H](O[C@H]2[C@H](C)[C@@H](O[C@@H]3O[C@H](C)C[C@H](NC)[C@H]3Oc3ccc(OCC)cc3)[C@](C)(O)C[C@@H](C)CN[C@H](C)[C@@H](O)[C@](C)(O)[C@@H](CC)OC(=O)[C@@H]2C)C[C@@]1(C)OC` [Example E-12] came in with an IC50 with TNF-α of 40 µM. Also, the “IL-1ß OS of LPS” value with IL-1β turned out to be 40 µM.
Consider `CCCNC[C@]1(O)[C@H](C)O[C@@H](O[C@H]2[C@H](C)[C@@H](O[C@@H]3O[C@H](C)C[C@H](N(C)C)[C@H]3Oc3cnc(OC)nc3)[C@](C)(O)C[C@@H](C)CN[C@H](C)[C@@H](O)[C@](C)(O)[C@@H](CC)OC(=O)[C@@H]2C)C[C@@]1(C)OC` [Example E-27], for which the IC50 with TNF-α worked out at 65 µM. In addition, the “IL-1ß OS of LPS” value in the test with IL-1β turned out to be 100 µM.
The corresponding values for `CCCNC[C@]1(O)[C@H](C)O[C@@H](O[C@H]2[C@H](C)[C@@H](O[C@@H]3O[C@H](C)C[C@H](N(C)C)[C@H]3Oc3ccc(OC)cc3)[C@](C)(O)C[C@@H](C)CN[C@H](C)[C@@H](O)[C@](C)(O)[C@@H](CC)OC(=O)[C@@H]2C)C[C@@]1(C)OC` [Example E-43] are 16 µM and 40 µM.
Turning to `CCCNC[C@]1(O)[C@H](C)O[C@@H](O[C@H]2[C@H](C)[C@@H](O[C@@H]3O[C@H](C)C[C@H](N(C)C)[C@H]3Oc3ccc(F)cc3)[C@](C)(O)C[C@@H](C)CN[C@H](C)[C@@H](O)[C@](C)(O)[C@@H](CC)OC(=O)[C@@H]2C)C[C@@]1(C)OC` [Example E-48], half-maximal inhibition in the test with TNF-α (IC50) was put at 13 µM. In addition, the “IL-1ß OS of LPS” value in the test with IL-1β was 40 µM.
For the molecule `CC[C@H]1OC(=O)[C@H](C)[C@@H](O[C@H]2C[C@@](C)(OC)[C@](O)(CNCC3CC3)[C@H](C)O2)[C@H](C)[C@@H](O[C@@H]2O[C@H](C)C[C@H](N(C)C)[C@H]2Oc2ccccc2)[C@](C)(O)C[C@@H](C)CN[C@H](C)[C@@H](O)[C@]1(C)O` [Example E-87], in the test on IL-1β, the “IL-1ß OS of LPS” value was 16 µM and 26 µM. In addition, the 50% inhibitory concentration (IC50) in the test on IL-6 was 18 µM and 19 µM.
For `CCCNC[C@]1(O)[C@H](C)O[C@@H](O[C@H]2[C@H](C)[C@@H](O[C@@H]3O[C@H](C)C[C@H](NC)[C@H]3Oc3cccc(OC)c3)[C@](C)(O)C[C@@H](C)CN[C@H](C)[C@@H](O)[C@](C)(O)[C@@H](CC)OC(=O)[C@@H]2C)C[C@@]1(C)OC` [Example E-94], it took 30 µM to reach half-maximal inhibition in the test with TNF-α (IC50). Moreover, the “IL-1ß OS of LPS” value in the test with IL-1β turned out to be 40 µM.
Regarding `CC[C@H]1OC(=O)[C@H](C)[C@@H](O[C@H]2C[C@@](C)(OC)[C@](O)(CNC3CCC3)[C@H](C)O2)[C@H](C)[C@@H](O[C@@H]2O[C@H](C)C[C@H](NC)[C@H]2Oc2ccccc2)[C@](C)(O)C[C@@H](C)CN[C@H](C)[C@@H](O)[C@]1(C)O` [Example E-126], in the test on TNF-α, half-maximal inhibition (IC50) was put at 14 µM. Besides, the “IL-1ß OS of LPS” value in the test with IL-1β is 40 µM.
`CC[C@H]1OC(=O)[C@H](C)[C@@H](O[C@H]2C[C@@](C)(OC)[C@](O)(CNCCN(C)C)[C@H](C)O2)[C@H](C)[C@@H](O[C@@H]2O[C@H](C)C[C@H](NC)[C@H]2Oc2ccccc2)[C@](C)(O)C[C@@H](C)CN[C@H](C)[C@@H](O)[C@]1(C)O` [Example E-129] yielded an IC50 in the test on TNF-α of 75 µM. For the same molecule, the “IL-1ß OS of LPS” value in the test with IL-1β was found to be 250 µM.
The matching figures for `CC[C@H]1OC(=O)[C@H](C)[C@@H](O[C@H]2C[C@@](C)(OC)[C@](O)(CNn3cccn3)[C@H](C)O2)[C@H](C)[C@@H](O[C@@H]2O[C@H](C)C[C@H](NC)[C@H]2Oc2ccccc2)[C@](C)(O)C[C@@H](C)CN[C@H](C)[C@@H](O)[C@]1(C)O` [Example E-139]: 5 µM and 6 µM.

The term IC50 denotes the concentration at which inhibition is half-maximal. High values mean weaker potency, low ones greater potency.
